Where a name gives a salt, the structure may show the parent alone.
Assays:
TAK1-TAB1 fusion protein = molecular target: T1, TAK1-TAB1 fusion protein (Homo sapiens, UniProt O43318); assay: TAK1 biochemical assay (AlphaScreen, GST-MAP2K7 substrate); details: TAK1-TAB1 fusion protein, GST-MAP2K7 substrate; read-out: mean TAK1 IC50 (Col. A)
T1 construct: purchased Carna
T1 sequence (O43318 with tags, fused parts or gaps limits assumed): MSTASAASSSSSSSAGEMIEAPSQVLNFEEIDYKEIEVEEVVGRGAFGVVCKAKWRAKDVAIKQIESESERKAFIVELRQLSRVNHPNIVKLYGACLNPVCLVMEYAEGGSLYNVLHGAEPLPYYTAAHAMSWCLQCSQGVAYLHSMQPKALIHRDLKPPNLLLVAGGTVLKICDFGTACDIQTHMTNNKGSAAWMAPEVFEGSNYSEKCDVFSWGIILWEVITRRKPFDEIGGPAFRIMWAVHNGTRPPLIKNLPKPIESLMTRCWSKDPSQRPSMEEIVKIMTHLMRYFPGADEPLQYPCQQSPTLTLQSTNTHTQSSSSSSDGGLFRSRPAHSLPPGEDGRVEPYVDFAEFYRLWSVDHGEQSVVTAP

p-p38 in HCT-116 cells = assay: Phospho-p38 Meso Scale ELISA assay, TNFα-stimulated HCT-116 cells; type: cell-based; details: Homo sapiens, read-out: mean HCT-116 p-p38 ELISA IC50 (Col. C)
In short: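 Phospho-p38 measured by Meso Scale ELISA on diluted lysates, captured overnight at 4° C. Before lysis, HCT-116 cells were serum-reduced (1% FCS, 2 h), treated with compounds 4 h at 37° C and stimulated 10 min with 10 ng/mL TNFα final.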

pJNK in HCT-116 cells = assay: Phospho-JNK (Thr183/Tyr185) Meso Scale ELISA assay, TNFα-stimulated HCT-116 cells; type: cell-based; details: Homo sapiens, read-out: mean HCT-116 pJNK ELISA IC50 (Col. B)
In short: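 Meso Scale ELISA read of phospho-JNK (Thr183/Tyr185) in lysed HCT-116 cells. Cells were serum-reduced to 1% FCS for 2 hours, exposed to test drug for 4 hrs at 37° C, then given 10 ng/mL TNFα (final) for 10 minutes before lysis.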

SMILES | IC50 (TAK1-TAB1 fusion protein) [nM] | IC50 (p-p38 in HCT-116 cells) [nM] | IC50 (pJNK in HCT-116 cells) [nM]
CC(=O)N1CCC(n2cc(-c3cnc(N)c4oc(-c5c(C)n[nH]c5C)cc34)cn2)CC1 [Example 180, 1-(4-{4-[7-amino-2-(3,5-dimethyl-1H-pyrazol-4-yl)furo[2,3-c]pyridin-4-yl]-1H-pyrazol-1-yl}piperidin-1-yl)ethanone] | 100 to 1000 | 1000 to 10000 | 1000 to 10000
CC(=O)N1CCC(n2cc(-c3cnc(N)c4oc(-c5ccccc5C)cc34)cn2)CC1 [Example 410, 1-(4-{4-[7-amino-2-(2-methylphenyl)furo[2,3-c]pyridin-4-yl]-1H-pyrazol-1-yl}piperidin-1-yl)ethanone] | 100 to 1000 | 1000 to 10000 | 100 to 1000
Nc1ncc(-c2cnn(C3CNC3)c2)c2cc(-c3csc4cnccc34)oc12 [Example 314, 4-(1-azetidin-3-yl-1H-pyrazol-4-yl)-2-thieno[2,3-c]pyridin-3-yl-furo[2,3-c]pyridin-7-ylamine] | < 100 | 100 to 1000 | 1000 to 10000
Nc1ncc(-c2cnn(C3CCCCC3)c2)c2cc(-c3c[nH]c4cnccc34)oc12 [Example 89, 4-(1-cyclohexyl-1H-pyrazol-4-yl)-2-(1H-pyrrolo[2,3-c]pyridin-3-yl)furo[2,3-c]pyridin-7-amine] | < 100 | 100 to 1000 | 100 to 1000
Nc1ncc(-c2cnn([C@H]3CC[C@H](O)CC3)c2)c2cc(-c3c(F)ccc4cnsc34)oc12 [Example 240, trans-4-{4-[7-amino-2-(6-fluoro-1,2-benzothiazol-7-yl)furo[2,3-c]pyridin-4-yl]-1H-pyrazol-1-yl}cyclohexanol diformate salt] | 100 to 1000 | 100 to 1000 | < 100

The next lines start with the values.

IC50 (TAK1-TAB1 fusion protein) [nM] | IC50 (p-p38 in HCT-116 cells) [nM] | IC50 (pJNK in HCT-116 cells) [nM] | SMILES
< 100 | 100 to 1000 | 100 to 1000 | CC(=O)N1CCC(n2cc(-c3cnc(N)c4oc(-c5cccc([N+](=O)[O-])c5C)cc34)cn2)CC1 [Example 218, 1-(4-{4-[7-amino-2-(2-methyl-3-nitrophenyl)furo[2,3-c]pyridin-4-yl]-1H-pyrazol-1-yl}piperidin-1-yl)ethanone]
100 to 1000 | 1000 to 10000 | 100 to 1000 | CC(=O)N1CCC(n2cc(-c3cnc(N)c4oc(-c5scc6c5OCCO6)cc34)cn2)CC1 [Example 109, 1-(4-{4-[7-amino-2-(2,3-dihydrothieno[3,4-b][1,4]dioxin-5-yl)furo[2,3-c]pyridin-4-yl]-1H-pyrazol-1-yl}piperidin-1-yl)ethanone]
< 100 | > 10000 | > 10000 | CC(=O)N1CCC(n2cc(-c3cnc(N)c4oc(-c5ccc6[nH]nnc6c5)cc34)cn2)CC1 [Example 158, 1-(4-{4-[7-amino-2-(1H-benzotriazol-5-yl)furo[2,3-c]pyridin-4-yl]-1H-pyrazol-1-yl}piperidin-1-yl)ethanone]
100 to 1000 | 100 to 1000 | < 100 | CN1CCC(n2cc(-c3cnc(N)c4oc(-c5cccc6cnccc56)cc34)cn2)CC1 [Example 77, 2-(isoquinolin-5-yl)-4-[1-(1-methylpiperidin-4-yl)-1H-pyrazol-4-yl]furo[2,3-c]pyridin-7-amine]
< 100 | < 100 | < 100 | Nc1ncc(-c2cnn([C@H]3CC[C@H](O)CC3)c2)c2cc(-c3csc4cnccc34)oc12 [Example 233, trans-4-{4-[7-amino-2-(thieno[2,3-c]pyridin-3-yl)furo[2,3-c]pyridin-4-yl]-1H-pyrazol-1-yl}cyclohexanol]
100 to 1000 | 1000 to 10000 | 100 to 1000 | COc1cc(-c2cc3c(-c4cnn(C5CCN(C(C)=O)CC5)c4)cnc(N)c3o2)ccc1O [Example 131, 1-(4-{4-[7-amino-2-(4-hydroxy-3-methoxyphenyl)furo[2,3-c]pyridin-4-yl]-1H-pyrazol-1-yl}piperidin-1-yl)ethanone]
< 100 | 100 to 1000 | 100 to 1000 | Nc1ncc(-c2cnn(C3CCNCC3)c2)c2cc(-c3csc4cnccc34)oc12 [Example 322, 4-(1-piperidin-4-yl-1H-pyrazol-4-yl)-2-thieno[2,3-c]pyridin-3-yl-furo[2,3-c]pyridin-7-ylamine]
